The source of these data is PubChem BioAssay AID1053172 (The Scripps Research Institute Molecular Screening Center, 2014).

The assay has as its target HIV-1 integrase / human LEDGF/p75 complex. In words: inhibitors of HIV-1 IN-LEDGF/p75 DNA integration, dose response, biochemical, TR-FRET (AID 1053172).

The source made the active and inactive calls. The rule behind the calls is not given here.

Regarding `C=CCn1c(C)cc(C(=O)Cn2ncc(Cl)c(Cl)c2=O)c1C`, the IC50 result is “inactive”.
For `CC(=O)Nc1ccc2c(COC(=O)CC3Sc4ccccc4NC3=O)cc(=O)oc2c1` (configuration not stated) the value was > 12.2 µM (inactive); for `O=c1cc(-c2ccc(O)c(O)c2)oc2cc(O)c(C3OC(CO)C(O)C(O)C3O)c(O)c12` (configuration not stated), 1.55 µM.
In the case of `COc1c(O)cc2oc(-c3ccc(O)c(O)c3)cc(=O)c2c1O` it was 1.83 µM; in that of `Cc1cc2nc3ccc(N(C)C)cc3nc2cc1N`, > 36.6 µM (inactive); in that of `NC(=O)CC1Nc2cccc3cccc(c23)NC1=O` (configuration not stated), > 36.5 µM (inactive).
In the case of `CN(C)[C@@H]1C(=O)C(C(N)=O)=C(O)[C@@]2(O)C(=O)C3=C(O)c4c(O)cccc4[C@@](C)(O)C3[C@H](O)C12` (some centres not stated) it was “inactive”.
Regarding `CC1(C)OC(C)(C)/C(=C/Nc2ccc(O)cc2)C1=O`, the IC50 result was “inactive”.
In the case of `CC1OC(Oc2c(-c3cc(O)c(O)c(O)c3)oc3cc(O)cc(O)c3c2=O)C(O)C(O)C1O` (configuration not stated) it was 3.09 µM.
For `Oc1cccc(CN2CCOCC2)c1O` the value was “inactive”.
For `O=C1CCCC(O)=C1N=Nc1ccc(C(=O)O)cc1` the value was 2.41 µM.
For `C=CC1=C(C(=O)O)N2C(=O)[C@@H](NC(=O)/C(=N\OCC(=O)O)c3csc(N)n3)[C@H]2SC1`, the half-inhibitory concentration (IC50) was 2.89 µM.
For `CN(C)c1ccc(O)c2c1CC1CC3[C@@H](N(C)C)C(=O)C(C(N)=O)=C(O)[C@]3(O)C(=O)C1=C2O` (some centres not stated) the value was 3.74 µM; for `CN(C)c1ccc2cc(S(=O)(=O)O)cc(O)c2c1`, 4.49 µM; for `COc1ccc(/C=N/NC(=O)c2cc(O)c(O)c(O)c2)cc1Cn1cc([N+](=O)[O-])cn1`, 0.689 µM.
For `O=c1c2cc(O)c(O)cc2oc2cc(O)c(C3OC(CO)C(O)C(O)C3O)c(O)c12` (configuration not stated) the value was 1.74 µM; for `Cn1cccc1CC(=O)NN=C/C=C\c1ccco1`, > 36.5 µM (inactive); for `CN=c1scc(C)n1/N=C/c1ccc(O)c(O)c1O`, 4.74 µM.
Turning to `CC1=CC(C)(C)N2C(=O)C(=Nc3ccc(O)cc3)c3cccc1c32`, the IC50 was > 12.2 µM (inactive).
`O=C1c2c(O)cc(O)cc2O[C@@]12c1c(cc(O)c3c1O[C@H](c1ccc(O)cc1)[C@@H](O)C3)O[C@@H]2c1ccc(O)cc1`: the IC50 result was “inactive”.
In the case of `O=C(CCN1C(=O)/C(=C/c2ccco2)SC1=S)Nc1ccc(O)cc1C(=O)O` it was “inactive”.
For `O=c1c(OC2OC(CO)C(O)C(O)C2OC2OC(CO)C(O)C(O)C2O)c(-c2ccc(O)cc2)oc2cc(O)cc(O)c12` (configuration not stated) the value was 8.05 µM.
In the case of `O=C1C(=Cc2ccco2)CCC1=Cc1ccco1` it was 1.92 µM.
`Cc1ccc(N=C2NC(=O)/C(=C/C=C/c3ccco3)S2)cc1C`: the IC50 was 7.35 µM.
In the case of `C[C@@H]1O[C@@H](Oc2c(-c3ccc(O)c(O)c3)oc3cc(O)cc(O)c3c2=O)[C@H](O)[C@H](O)[C@H]1O` it was 2.61 µM; in that of `CCCNC1=C(C)C(=O)C2=C(C1=O)C(COC(N)=O)[C@]1(OC)C3NC3CN21` (some centres not stated), “inactive”.
In the case of `Oc1ccc(NCc2cccc(OCc3ccccc3)c2)cc1`, the IC50 was > 36.5 µM (inactive).
For `O=C(CCc1ccc(S(=O)(=O)N2CCOCC2)cc1)N/N=C/c1ccc(O)c(O)c1O` the value was “inactive”; for `Oc1cccc(/C=N/NC(=S)Nc2cccnc2)c1O`, “inactive”; for `COc1cc(C)cc(C(=O)O)c1C1=C(O)c2cccc(O)c2C(=O)C1=O`, 4.87 µM.
In the case of `COc1cc(-c2cc(=O)c3c(O)c(OC)c(OC)c(O)c3o2)ccc1O` it was 4.96 µM; in that of `Cc1ccc(-c2csc(NS(=O)(=O)c3cccc(F)c3)n2)o1`, “inactive”; in that of `Cc1cc(=O)n2[nH]c(-c3ccsc3-n3c(C)ccc3C)cc2n1`, “inactive”.
With `Oc1ccc(/C=N/NC(=S)Nc2cccnc2)cc1O`, the IC50 is 4.5 µM.
In the case of `CC(=O)c1ccc2c(c1)C1C=CCC1C(C(=O)O)N2` (configuration not stated) it was 0.575 µM; in that of `CC(=O)Nc1ccc(C(=O)/C=C/c2ccco2)cc1`, 9.78 µM; in that of `C/C(=N/NC(=O)c1cc(O)c(O)c(O)c1)c1ccc([N+](=O)[O-])cc1`, 2.12 µM.
Consider `COc1ccccc1OCC(=O)N/N=C/C=C/c1ccc([N+](=O)[O-])o1`, for which the IC50 is > 36.5 µM (inactive).
Consider `NC1=C(Cl)C(=O)c2ccc(S(N)(=O)=O)cc2C1=O`, for which the IC50 is 0.429 µM.
In the case of `O=C1NC(=Nc2ccc(O)cc2)S/C1=C\C=C\c1ccco1` it was 4.08 µM.
For `CN(C)C1C(=O)C(C(N)=O)=C(O)C2(O)C(=O)C3=C(O)c4c(O)cccc4C(C)(O)C3C(O)C12` (configuration not stated) the value was “inactive”; for `Oc1ccc(/C=N/N=C/c2ccc(O)c(O)c2)cc1O`, 0.191 µM.
As for `COCCN=c1scc(-c2ccco2)n1/N=C/c1ccc(O)c(O)c1O`, the IC50 is 3.26 µM.
In the case of `S=c1[nH]nc(-c2ccco2)n1/N=C/C=C/c1ccco1` it was “inactive”.
In the case of `Cc1ccc(/C=C/C(=O)Nc2ccc([N+](=O)[O-])c(NC(=O)/C=C/c3ccc(C)o3)c2)o1` it was “inactive”; in that of `C(=C\c1ccco1)/c1ccc2ccccc2n1`, > 36.5 µM (inactive).
In the case of `O=S(=O)(O)c1ccc(O)c2cc(Nc3ccccc3)ccc12` it was 0.723 µM; in that of `NC(=O)c1ccc(N=Cc2c(O)n(Cc3ccco3)c(=O)[nH]c2=O)cc1`, “inactive”; in that of `O=C(O)CC(C(=O)O)N1C(=O)/C(=C/C=C/c2ccco2)SC1=S` (configuration not stated), 0.377 µM.
On to `CC1(C)OC(=O)C(=Cc2ccc(-c3ccc(Cl)c(C(=O)O)c3)o2)C(=O)O1`, for which the IC50 is 7.91 µM.
Turning to `O=C1Nc2ccccc2/C1=N\N=C\c1ccc(O)c(O)c1`, the IC50 is 0.696 µM.
In the case of `CCN(CC)CCCNc1ccc2ncn3c4ccc(O)cc4c(=O)c1c23` it was > 36.5 µM (inactive).
In the case of `Nc1c(C(=O)N/N=C/c2cccnc2)oc2nc(-c3ccco3)cc(-c3ccco3)c12` it was > 36.6 µM (inactive).
For `Cc1cc(/C=C2\C(=O)NC(=O)N(c3ccccc3F)C2=O)c(C)n1-c1cc(C(=O)O)cc(C(=O)O)c1`, the half-maximal inhibitory concentration (IC50) was 0.815 µM.
For `O=C(NCCCO)c1ccc2nc(-c3ccco3)c(-c3ccco3)nc2c1` the value was 2.85 µM.
For `Oc1ccc(/C=N/N=C(c2ccccc2)c2ccccc2)c(O)c1O` the value was 1.08 µM; for `C[C@@H]1O[C@@H](Oc2c(-c3cc(O)c(O)c(O)c3)oc3cc(O)cc(O)c3c2=O)[C@H](O)[C@H](O)[C@H]1O`, 1.64 µM.
Regarding `C=C(C)C(=O)Nc1cccc(C2=NOC3(C2)C[C@@H](C(N)=O)N(C(=O)C(=C)C)C3)c1` (some centres not stated), the concentration for half-maximal inhibition (IC50) is 5.92 µM.
`Nc1ccc2cc3ccc(N)cc3nc2c1`: the IC50 is 4.46 µM.
Turning to `O=C1c2cc(O)c(O)cc2OC(c2ccc(O)c(O)c2)C1O` (configuration not stated), the 50% inhibitory concentration (IC50) was 4.69 µM.
In the case of `COCCN(CCOC)Cc1c(O)ccc2c1O/C(=C\c1ccc(C)o1)C2=O` it was > 36.5 µM (inactive); in that of `O=C(Cc1nnc(NC(=O)c2ccccc2)s1)N/N=C\c1ccc(O)c(O)c1`, 2.21 µM; in that of `CC1OC(OCC2OC(Oc3c(-c4ccc(O)cc4)oc4cc(O)cc(O)c4c3=O)C(O)C(O)C2O)C(O)C(O)C1O` (configuration not stated), 8.68 µM.
In the case of `COc1ccc(NC(=S)Nc2ccc3nsnc3c2)cc1` it was “inactive”; in that of `O=c1cc(-c2ccc(O)cc2)oc2cc(O)c(C3OC(CO)C(O)C(O)C3O)c(O)c12` (configuration not stated), 5.96 µM.
In the case of `CN(C(=O)COC(=O)c1cc(-c2ccco2)nc2ccccc12)C1CCS(=O)(=O)C1` (configuration not stated) it was 7.42 µM; in that of `O=C(O)C1Nc2c(O)cccc2C2C=CCC12` (configuration not stated), 0.754 µM; in that of `Cc1ccc(/C=C2/C(=O)c3ccc(C(=O)O)cc3C2=O)o1`, 2.28 µM.
For `O=C1/C(=C/C=C/c2ccco2)SC(=S)N1c1ccc(O)cc1`, the IC50 is 2.66 µM.
Take `Cc1ccc(NC(=O)CN2C(=O)N/C(=C/c3ccco3)C2=O)cc1`: the IC50 is > 36.5 µM (inactive).
On to `N/C(=N\N=C/c1ccc(-c2ccc(O)c(C(=O)O)c2)o1)N[N+](=O)[O-]`, for which the IC50 is 1.55 µM.
Regarding `Cc1sc2nc(SCC(=O)c3ccc(O)c(O)c3)n(C)c(=O)c2c1C`, the concentration for half-maximal inhibition (IC50) was 3.63 µM.
In the case of `O=C(O)c1cccc(-n2cccc2/C=C/[N+](=O)[O-])c1` it was 8.75 µM; in that of `COc1ccc(/C=N\NC(=O)c2cc(O)c(O)c(O)c2)cc1CN1CCN(c2ccc(F)cc2)CC1`, > 36.5 µM (inactive); in that of `COC(=O)c1ccc(C)c(NC(=O)CSc2sc3c(O)cc(=O)[nH]c3c2C#N)c1`, “inactive”.
For `O=C(O)c1cccc2cccc(-c3c4ccc(=O)c(O)c-4oc4c(O)c(O)ccc34)c12` the value was 0.369 µM; for `CCOc1ccc(NC(=O)CN(C)C(=O)c2cc3c(s2)CCC3)cc1OCC`, 9.57 µM; for `c1coc(-c2nnc(-c3ccco3)nn2)c1`, 1.75 µM.
For `COc1ccc(NS(=O)(=O)c2ccc3c(c2)[C@H]2C=CC[C@H]2[C@@H](c2ccc(C(=O)O)cc2)N3)cc1` the value was 2.12 µM.
With `O=C(NN1C(=O)/C(=C/c2ccc(O)c(O)c2)SC1=S)c1ccccc1`, the IC50 was 1.8 µM.
In the case of `O=C(O)Cc1c[nH]c2cccc(O)c12` it was 7.41 µM; in that of `COCCN(CCOC)Cc1c(O)ccc2c1O/C(=C\c1ccco1)C2=O`, > 12.2 µM (inactive).
